Experimental data from patent US20090142364A1, “Method for finding novel peptide immunostimulatory adjuvants, compositions and methods of use” (priority 2007, published 2009).
Where a SMILES comes first, the peptide text is derived from it. [ ]: non-standard residue; d: D form.

Tests used:
[1] = tested on: antibody response to ovalbumin; assay: Adjuvant activity: antibody response to ovalbumin in mice, titer by solid-phase ELISA; format: in vivo, Balb/c mice; settings: for Adjuvant index / Anti-ovalbumin antibody titer: i.p.
Experimental: To study the adjuvant activity of RN-peptide, Balb/c mice were immunized with ovalbumin in saline in the presence of the RN-peptide, its analogs or GMDP, or without any adjuvant (control). The adjuvant was introduced on first immunization, whereas second immunization was carried out with half dose of OVA without adjuvant.
Adjuvant activity. Groups of 5 Balb/c mice were administered i.p. with 2.5-10 μg ovalbumin (Sigma, USA) per mouse in 200 μl PBS. RN-peptide (0.1-100 μg) or GMDP (1-100 μg) was introduced simultaneously with ovalbumin on first immunization. The second immunization was carried out 28 days later with half dose of ovalbumin (1.25-5.0 μg/200 μl) without adjuvant. Control mice received ovalbumin twice without adjuvant. Three days after the second immunization mice were bled from the tail vein. […] Control mice received polysaccharide without any adjuvant. Five and ten days after immunization mice were bled.
The antibody titer was evaluated by solid-phase ELISA as described by Douillard and Hoffman (1983) Enzyme-linked immunosorbent assay for screening monoclonal antibody production using enzyme-labeled second antibody. The antigen (ovalbumin or polysaccharide), 5 μg/ml in bicarbonate buffer, pH 8.6 (100 μl), was introduced into wells of 96-well microtiter plate. Incubation was carried out overnight at 4° C. The plate was washed 5 times with PBS and 5 times with PBS/0.1% Tween-20 (PBS-T). Remaining binding sites were blocked with 1% gelatin in PBS (2 h, room temperature). After washing 100 μl of mouse serum (1:100 dilution) was added, and serial three-fold dilutions were made. Bound antibodies were visualized by incubation with Horse-Radish-Peroxidase (HRP)-conjugated rabbit anti-mouse antibodies and OPD as the chromogenic substrate.

[2] = rat, in vivo, ip
Experimental: (§1) We studied the Ia-antigen-inducing activity of RN-peptide by stimulation in vitro of murine peritoneal macrophages. Flow cytometry was used to assess Ia-antigen expression. […] The pyrogenicity of the peptide was studied in Wistar rats. […] The dynamics of alteration of rectal temperature were monitored during 2.5 h.
The pyrogenic effect SPF female Wistar rats were injected i.p. with a peptide (1.01 mg/kg; 5.74×10^−7 mole/kg) in PBS or with equal dose of GMDP (0.4 mg/kg; 5.74×10^−7 mole/kg). Rectal temperature was recorded every 5 minutes for 160 minutes using PowerLabe/4sp system with an electronic thermometer (MLT1403 Rectal Probe for Rats, AD Instruments USA). All data were quantified (mean±SEM) and compared by the variance analysis.

E. coli strain TG-1 = assay: Survival of Balb/c mice infected with E. coli strain TG-1; format: in vivo, mouse; settings: 2 ng i.p., 6 mice at 0 h
Experimental: Groups of Balb/c mice (20-22 g) were administered i.p. with RN-peptide, or GMDP, or saline (control), and then infected i.p. with E. coli strain TG-1 cells. Two doses of E. coli cells were used—1×10^8 (LD50) and 2×10^8 (LD100). Mice were infected one day (experiment A) or seven days (experiment B) after injection of the immunomodulator. Survival of mice was assessed during three days. Results showing that RN-peptide protects mice from lethal doses of E. coli infections (Table 4).

[3] = tested on: Balb/c mice peritoneal mononuclear cells (PMC); assay: Ia-antigen-inducing effect, flow cytometry, peritoneal mononuclear cells; format: cell-based, mouse
Experimental: as §1
Balb/c mice peritoneal mononuclear cells (PMC) were isolated by Histopaque density gradient centrifugation. PMC or WEHI-3 cells were incubated with RN-peptide (0.1-10 μg/ml) or GMDP (positive control) or saline (negative control) in RPMI 1640 medium, supplemented with 5% fetal calf serum upon rotary mixing for 18 h at 37° C. Cells were stained on ice bath with MKD6 anti-Ia^d mAb (supernatant from the in vitro culture, 1:10 dilution) and FITC-labeled anti-mouse immunoglobulin (Sigma, USA, 1:300 dilution), and then with phycoerythrin-labeled F4/80 mAb (Caltag, USA, 0.2 μg/100 μl). Ia antigen expression was assessed by flow cytometry using EPICS “Elite” (Coulter, USA).

mAb E6/1.2 = settings: cited from earlier work
[4] = adjuvant 1 μg, ovalbumin 10 μg then 5 μg
[5] = adjuvant 10 μg, ovalbumin 10 μg then 5 μg
[6] = adjuvant 100 μg, ovalbumin 10 μg then 5 μg
[7] = Experiment A (infected one day after injection), 1 × 10^8 E. coli cells (LD50)
[8] = Experiment A (infected one day after injection), 2 × 10^8 E. coli cells (LD100)
[9] = Experiment B (infected seven days after injection), 1 × 10^8 E. coli cells (LD50)
[10] = Experiment B (infected seven days after injection), 2 × 10^8 E. coli cells (LD100)
[11] = adjuvant 10 μg, ovalbumin 2.5 μg then 1.25 μg

Compound: R-I-peptide: 10-mer, RN-peptide truncated from C-terminus (SEQ ID NO: 9) (RVPPRYHAKI)
- Adjuvant index [1, 4]: 6.3 ± 0.06
- Anti-ovalbumin antibody titer [1, 4]: 24000
- Adjuvant index [1, 5]: 3.2 ± 0.09
- Anti-ovalbumin antibody titer [1, 5]: 19200
- Adjuvant index [1, 6]: 4.2 ± 0.05
- Anti-ovalbumin antibody titer [1, 6]: 25200
- adjuvant activity (in words) ([1]; ovalbumin in mice): adjuvant active

Compound: CC(=O)N[C@H]1[C@H](O[C@H]2[C@H](O[C@H](C)C(=O)N[C@@H](C)C(=O)N[C@H](CCC(=O)O)C(N)=O)[C@@H](NC(C)=O)C(O)O[C@@H]2CO)O[C@H](CO)[C@@H](O)[C@@H]1O (stereo partly drawn) [GMDP, N-acetylglucosaminyl-β1-4-N-acetylmuramyl-alanyl-D-isoglutamine, reference compound]
- increase in body temperature [2]: 2.0-4.0%
- Number of survivors (E. coli strain TG-1; [7]): 2
- surviving mice, 24 hours after infection (E. coli strain TG-1; [7]): 2
- surviving mice, 28 hours after infection (E. coli strain TG-1; [7]): 2
- surviving mice, 72 hours after infection (E. coli strain TG-1; [7]): 2
- Number of survivors (E. coli strain TG-1; [8]): 1
- surviving mice, 24 hours after infection (E. coli strain TG-1; [8]): 2
- surviving mice, 28 hours after infection (E. coli strain TG-1; [8]): 2
- surviving mice, 72 hours after infection (E. coli strain TG-1; [8]): 1
- Number of survivors (E. coli strain TG-1; [9]): 2
- surviving mice, 24 hours after infection (E. coli strain TG-1; [9]): 5
- surviving mice, 28 hours after infection (E. coli strain TG-1; [9]): 2
- surviving mice, 72 hours after infection (E. coli strain TG-1; [9]): 2
- Number of survivors (E. coli strain TG-1; [10]): 0
- surviving mice, 24 hours after infection (E. coli strain TG-1; [10]): 3
- surviving mice, 28 hours after infection (E. coli strain TG-1; [10]): 2
- surviving mice, 72 hours after infection (E. coli strain TG-1; [10]): 0
- Adjuvant index [1, 4]: 0.7 ± 0.03
- Anti-ovalbumin antibody titer [1, 4]: 4000 ± 150
- Adjuvant index [1, 11]: 2.37 ± 0.06
- Anti-ovalbumin antibody titer [1, 11]: 5800 ± 150
- Adjuvant index [1, 5]: 1.3 ± 0.03
- Anti-ovalbumin antibody titer [1, 5]: 7900 ± 200
- Adjuvant index [1, 6]: 10.8 ± 0.08
- Anti-ovalbumin antibody titer [1, 6]: 64800 ± 500
- concentration of peak (optimal) Ia-antigen response ([3]; 18 h incubation): 10 µg/mL
- increase in Ia-positive cell number ([3]; at optimal dose, overnight treatment): 10%
- optimal dose for Ia-positive cell increase ([3]; overnight treatment): 10 µg

Compound: RV-peptide: 14-mer, RN-peptide truncated from C-terminus (SEQ ID NO: 8) (RVPPRYHAKISPMV)
- Adjuvant index [1, 4]: 6.3 ± 0.06
- Anti-ovalbumin antibody titer [1, 4]: 37800 ± 350
- Adjuvant index [1, 5]: 1.4 ± 0.04
- Anti-ovalbumin antibody titer [1, 5]: 8400 ± 240
- Adjuvant index [1, 6]: 0.8 ± 0.03
- Anti-ovalbumin antibody titer [1, 6]: 4800 ± 180

Compound: CC(=O)N[C@H]1[C@H](O[C@H]2[C@H](O[C@H](C)C(=O)O)[C@@H](NC(C)=O)C(O)O[C@@H]2CO)O[C@H](CO)[C@@H](O)[C@@H]1O (stereo partly drawn) [GlcNAc-β(1-4)-MurNAc]
- inhibition of binding of GMDP to E6/1.2 mAb (mAb E6/1.2): could be inhibited by high concentration

Compound: CC(=O)NC1C(OC2C(CO)OC(O)C(NC(C)=O)C2OC(C)C(=O)NC(C)C(=O)NC(CCC(=O)O)C(N)=O)OC(CO)C(O)C1O (stereo not drawn) [LL-GMDP]
- binding of mAb E6/1.2 (mAb E6/1.2; compared with GMDP): bind equally well

Compound: C[C@H](N)C(=O)N[C@H](CCC(=O)O)C(N)=O [Ala-D-iGln] (H-Ala-[dE]-NH2)
- inhibition of binding of GMDP to E6/1.2 mAb (mAb E6/1.2): not

Compound: R-H-peptide: 7-mer, RN-peptide truncated from C-terminus (SEQ ID NO: 10); truncated heptapeptide (RVPPRYH)
- Adjuvant index [1, 4]: 0.7 ± 0.03
- Anti-ovalbumin antibody titer [1, 4]: 4000
- Adjuvant index [1, 5]: 2.3 ± 0.05
- Anti-ovalbumin antibody titer [1, 5]: 13900
- Adjuvant index [1, 6]: 8.6 ± 0.09
- Anti-ovalbumin antibody titer [1, 6]: 51900
- dose required for maximal effect relative to RN-peptide ([1]; mouse, in vivo): 100 times

Compound: VN-peptide: 14-mer, RN-peptide truncated from N-terminus (SEQ ID NO: 11) (VPPRYHAKISPMVN)
- Adjuvant index [1, 4]: 0.9 ± 0.03
- Anti-ovalbumin antibody titer [1, 4]: 5400 ± 200
- Adjuvant index [1, 5]: 1.4 ± 0.04
- Anti-ovalbumin antibody titer [1, 5]: 8400 ± 230
- Adjuvant index [1, 6]: 0.7 ± 0.03
- Anti-ovalbumin antibody titer [1, 6]: 4200 ± 150
